Results from patent US9518000B2, “Bicyclo [2.2.1] acid GPR120 modulators” (BRISTOL-MYERS SQUIBB COMPANY, priority 2013, dated 2016).

Target: human GPR120 (Homo sapiens (Human), UniProt Q5NUL3)
Test: GPR120 pERK AlphaScreen SureFire Assay (human GPR120 pERK assay)
Type: cell-based
Details: CHOA12 or CHO-K1 cells stably transfected with the short form of human GPR120 receptor; phosphorylated ERK; read-out: EC50 values measured in the human GPR120 pERK assay
From the text: GPR120 activity was monitored by measuring phosphorylation of ERK (pERK), since G protein receptors are known to activate the ERK signaling cascade either directly and/or through recruitment of arrestin that serves as a scaffold for downstream signaling events.
GPR120 pERK AlphaScreen SureFire Assay
The human and mouse GPR120-mediated intracellular phosphorylated ERK assays were established using CHOA12 cells stably transfected with the short form of human or mouse GPR120 receptor. Cells were cultured in growth medium consisting of F-12 media (Invitrogen Cat. #11765) with 5% Charcoal/Dextran FBS (Invitrogen Cat. #12676-029), 500 μg/mL GENETICIN® (Life Technologies Cat. #10131-027) and 250 μg/mL Zeocin (Invitrogen Cat. #R250-01). Cells were cryo preserved at a concentration of 2×10^7 cells/mL, in 90% Charcoal/Dextran FBS and 10% DMSO, and frozen in liquid nitrogen at a low passage number.
For the pERK assay, 2×10^7 cells/mL cryopreserved human and mouse cells were thawed rapidly in a 37° C. water bath and added to a T-225 flask containing 50 mL growth medium. The flasks were placed in a tissue culture incubator overnight (37° C., 5% CO2). The next day, cells were harvested with trypsin (Gibco Cat. #25300-054), resuspended in serum-containing growth medium and counted using a Cellometer and volume adjusted to a concentration of 0.6×10^6 cells/mL. Cells were plated into 384-well clear bottom tissue culture plates (BD Cat. #353962) at 50 μL/well, for a density of 30,000 cells/well using a MULTIDROP® and incubated for 16-18 hours (overnight) at 37° C. with 5% CO2. The next day, cells were serum starved in 30 μL of F-12 media without any serum or antibiotics for 2 hours at 37° C.
Test compounds were 3-fold, 11-point serially diluted in DMSO in a REMP assay plate (Matrix Cat. #4307) by Tecan and 5 μL was transferred into an ECHO source plate (LabCyte Cat. #LC-0200). Cells were then stimulated with 50 nL of compound dilutions using ECHO liquid handler for 7 minutes at 37° C. Compounds ranged from final assay concentrations of 33.33 μM to 0.56 nM.
The media was then dumped and cells lysed with 20 μL of 1× Lysis buffer from the AlphaScreen SureFire Phospho-ERK 1/2 Kit (Perkin Elmer Cat. #6760617M). The lysis buffer was diluted 5-fold with water before use. The plate was agitated on a shaker for 10 minutes after which 2 μL was transferred into a 384-well white proxiplate (Perkin Elmer Cat. #6008289). The SureFire assay reagent mix was prepared by mixing 60 parts Reaction Buffer, 10 parts Activation Buffer, 1 part Donor Beads, 1 part Acceptor Beads (Perkin Elmer Cat. #TGRES10K). 3.5 μL/well of this reagent mix was manually added to the proxiplate with a multichannel pipettor. Plates were spun down at 1000 rpm for 2 minutes, followed by light-protected incubation at room temperature for 2 hours. The plates were read on the Alpha-technology compatible Envision multilabel plate reader using AlphaScreen protocol according to manufacturer's specifications. The agonist effect of compounds was expressed as 100×(average sample-average blank)/(average total−average blank) where sample is the luminescence activity in the presence of test compound, blank is equal to the luminescence activity in the presence of DMSO control and the total is signal induced by 50 μM linolenic acid as reference compound. Activation data for the test compound over a range of concentrations was plotted as percentage activation of the test compound (100%=maximum response). After correcting for background, EC50 values were determined. The EC50 is defined as the concentration of test compound which produces 50% of the maximal response and was quantified using the 4 parameter logistic equation to fit the data.
The human and mouse GPR120-mediated intracellular phosphorylated ERK assays were also established using CHO-K1 cells stably transfected with the short form of human or mouse GPR120 receptor. […]

human GPR120, sequence (Q5NUL3 whole entry): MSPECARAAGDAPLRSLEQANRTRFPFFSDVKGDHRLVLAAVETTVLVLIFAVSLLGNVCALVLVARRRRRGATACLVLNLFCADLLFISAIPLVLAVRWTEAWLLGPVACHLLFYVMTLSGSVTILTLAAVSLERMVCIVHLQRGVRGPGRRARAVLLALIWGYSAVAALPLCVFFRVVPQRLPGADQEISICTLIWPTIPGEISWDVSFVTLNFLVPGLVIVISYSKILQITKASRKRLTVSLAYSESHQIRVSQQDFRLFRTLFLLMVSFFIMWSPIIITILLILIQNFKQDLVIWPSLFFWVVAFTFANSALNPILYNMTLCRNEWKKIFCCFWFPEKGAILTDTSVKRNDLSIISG

| Molecule | EC50 [µM] |
| --- | --- |
| O=C(O)CCCC12CCC(OCc3cccc(C(=O)c4ccccc4)c3)(CC1)C2 [Example 39, 4-(4-(3-benzoyl-benzyloxy)bicyclo[2.2.1]heptan-1-yl) butanoic acid] | 0.82 |
| Cc1cc(COC23CCC(CCCC(=O)O)(CC2)C3)ccc1F [Example 13, 4-(4-(4-fluoro-3-methylbenzyl-oxy)bicyclo [2.2.1]heptan-1-yl)butanoic acid] | 7.67 |
| CC1(C)Cc2cc(Cl)cc(COC34CCC(COCC(=O)O)(CC3)C4)c2O1 [Example 77, 2-((4-((5-chloro-2,2-dimethyl-2,3-dihydrobenzofuran-7-yl)methoxy)bicyclo[2.2.1]heptan-1-yl)methoxy)acetic acid] | 4.53 |
| O=C(O)CCCC12CCC(OCc3cc(Cl)cc(OC(F)(F)F)c3)(CC1)C2 [Example 18, 4-(4-(3-chloro-5-(trifluorometh-oxy)benzyloxy)bicyclo[2.2.1]heptan-1-yl) butanoic acid] | 0.25 |
| O=C(O)/C=C/CC12CCC(OCc3cccc(Oc4ccccc4)c3)(CC1)C2 [Example 94, (E)-4-(4-((3-Phenoxybenzyl)oxy)bicyclo[2.2.1]heptan-1-yl)but-2-enoic acid] | 0.63 |
| O=C(O)CCCC12CCC(OCc3cc(F)cc(Oc4ccccc4)c3)(CC1)C2 [Example 34, 4-(4-(3-fluoro-5-phenoxybenzyl-oxy)bicyclo [2.2.1]heptan-1-yl)butanoic acid] | 0.4 |
| O=C(O)CCC12CCC(OCCc3ccccc3Oc3ccccc3)(CC1)C2 [Example 86, 3-(4-(2-Phenoxyphenethoxy)bicyclo[2.2.1]heptan-1-yl)propanoic acid] | 6.99 |
| Cc1nc(-c2cccc(COC34CCC(CCCC(=O)O)(CC3)C4)c2)no1 [Example 37, 4-(4-(3-(5-methyl-1,2,4-oxadiazol-3-yl)benzyloxy)bicyclo[2.2.1]heptan-1-yl) butanoic acid] | 3.12 |
| O=C(O)CCCC12CCC(OCc3cc(C(F)(F)F)ccc3Cl)(CC1)C2 [Example 63, 4-(4-(2-chloro-5-(trifluoromethyl)benzyloxy)bicyclo[2.2.1]heptan-1-yl) butanoic acid] | 2.47 |
| CC(OC12CCC(CCCC(=O)O)(CC1)C2)c1cccc(C(F)(F)F)c1 (stereo not shown) [Example 8, 4-(4-(1-(3-(trifluoromethyl)phenyl)ethoxy)bicyclo[2.2.1]heptan-1-yl) butanoic acid] | 2.34 |
| O=C(O)CCCC12CCC(OCc3c(F)ccc(F)c3Cl)(CC1)C2 [Example 56, 4-(4-(2-chloro-3,6-difluorobenzyl-oxy)bicyclo [2.2.1]heptan-1-yl)butanoic acid] | 1.88 |
| CC(C)Oc1cccc(COC23CCC(CCCC(=O)O)(CC2)C3)c1 [Example 38, 4-(4-(3-isopropoxy-benzyloxy)bicyclo [2.2.1]heptan-1-yl)butanoic acid] | 1.68 |
| COc1ccc(OC(F)(F)F)cc1COC12CCC(CCCC(=O)O)(CC1)C2 [Example 29, 4-(4-(2-methoxy-5-(trifluorometh-oxy)benzyloxy)bicyclo[2.2.1]heptan-1-yl) butanoic acid] | 5.07 |

Continued by falling EC50, values first:

| EC50 [µM] | Molecule |
| --- | --- |
| 6.64 | CC1(C)Cc2cc(Cl)cc(COC34CCC(CCC(=O)O)(CC3)C4)c2O1 [Example 71, 3-(4-((5-Chloro-2,2-dimethyl-2,3-dihydrobenzofuran-7-yl)methoxy)bicyclo[2.2.1]heptan-1-yl)propanoic acid] |
| 4.15 | COc1ccc(Br)cc1COC12CCC(CCCC(=O)O)(CC1)C2 [Example 60, 4-(4-(5-bromo-2-methoxybenzyl-oxy)bicyclo [2.2.1]heptan-1-yl)butanoic acid] |
| 2.8 | O=C(O)CCCC12CCC(OCc3ccc(Cl)cc3)(CC1)C2 [Example 24, 4-(4-(4-chloro-benzyloxy)bicyclo[2.2.1]heptan-1-yl) butanoic acid] |
| 2.68 | NC(=O)CNC(=O)CCCC12CCC(OCc3cc(F)cc(Oc4ccccc4)c3)(CC1)C2 [Example 98, N-(2-Amino-2-oxoethyl)-4-(4-((3-fluoro-5-phenoxybenzyl)oxy)bicyclo[2.2.1]heptan-1-yl)butanamide] |
| 2.48 | OCC(O)CCC12CCC(OCc3cc(F)cc(Oc4ccccc4)c3)(CC1)C2 (single isomer, unassigned) [Example 97, 4-(4-((3-Fluoro-5-phenoxybenzyl)oxy)bicyclo[2.2.1]heptan-1-yl)butane-1,2-diol] |
| 1.85 | O=C(O)COCC12CCC(OCc3cc(F)cc(Oc4ccc(F)cc4)c3)(CC1)C2 [Example 75, 2-((4-(3-fluoro-5-(4-fluorophenoxy)benzyloxy)bicyclo[2.2.1]heptan-1-yl)methoxy)acetic acid] |
| 1.55 | CC(C)Oc1ccccc1COC12CCC(CCCC(=O)O)(CC1)C2 [Example 36, 4-(4-(2-isopropoxy-benzyloxy)bicyclo [2.2.1]heptan-1-yl)butanoic acid] |
| 1.02 | CC(C)Oc1ccc(Cl)cc1COC12CCC(CCCC(=O)O)(CC1)C2 [Example 5, 4-(4-(5-chloro-2-isopropoxy-benzyloxy)bicyclo[2.2.1]heptan-1-yl) butanoic acid] |
| 0.73 | O=C(O)CCCC12CCC(OCc3cc(F)cc(Cl)c3)(CC1)C2 [Example 22, 4-(4-(3-chloro-5-fluorobenzyl-oxy)bicyclo [2.2.1]heptan-1-yl)butanoic acid] |
| 0.71 | 4-(4-(2-(trifluoro- methoxy) benzoyloxy) bicyclo[2.2.1] heptan-1-yl) butanoic acid [Example 20] |
| 0.71 | O=C(O)CCCC12CCC(OCc3cccc(Cl)c3F)(CC1)C2 [Example 45, 4-(4-(3-chloro-2-fluorobenzyl-oxy)bicyclo [2.2.1]heptan-1-yl)butanoic acid] |
| 0.64 | O=C(O)CCCC12CCC(OCc3cccc(Oc4ccccc4F)c3)(CC1)C2 [Example 16, 4-(4-(3-(2-fluorophenoxy)benzyloxy)bicyclo[2.2.1]heptan-1-yl) butanoic acid] |
| 0.6 | O=C(O)CCCC12CCC(OC3CCc4c(Cl)cc(Cl)cc43)(CC1)C2 (stereo not shown) [Example 9, 4-(4-(4,6-dichloro-2,3-dihydro-1H-inden-1-yloxy)bicyclo[2.2.1]heptan-1-yl) butanoic acid] |
| 0.44 | CC(C)Oc1cc(F)cc(COC23CCC(CCCC(=O)O)(CC2)C3)c1 [Example 35, 4-(4-(3-fluoro-5-isopropoxybenzyl-oxy)bicyclo [2.2.1]heptan-1-yl)butanoic acid] |
| 0.38 | OCC(O)CCC12CCC(OCc3cc(F)cc(Oc4ccccc4)c3)(CC1)C2 (single isomer, unassigned) [Example 96, 4-(4-((3-Fluoro-5-phenoxybenzyl)oxy)bicyclo[2.2.1]heptan-1-yl)butane-1,2-diol] |
| 0.32 | COc1ccc(COC23CCC(CCCC(=O)O)(CC2)C3)c(OC(F)(F)F)c1 [Example 43, 4-(4-(4-methoxy-2-(trifluoromethoxy)benzyloxy)bicyclo[2.2.1]heptan-1-yl) butanoic acid] |
| 0.27 | O=C(O)CCOC12CCC(OCc3cc(F)cc(Oc4ccccc4)c3)(CC1)C2 [Example 79, 3-(4-(3-Fluoro-5-phenoxybenzyloxy)bicyclo[2.2.1]heptan-1-yloxy)propanoic acid] |
| 0.25 | O=C(O)CCCC12CCC(OCc3cccc(Oc4ccc(F)cc4)c3)(CC1)C2 [Example 17, 4-(4-(3-(4-fluorophenoxy)benzyloxy)bicyclo[2.2.1]-1-yl)butanoic acid] |
